Measured values taken from US20250387419A1, “PARP INHIBITOR-RESISTANT PATIENT TREATED WITH TH-302” (ASCENTAWITS PHARMACEUTICALS, LTD., priority 2021, published 2025).
Where “and” joins values, the source holds several entries; their conditions need not be identical. Identical values can stand only once.

Tested on: human pancreatic cancer Capan-1 subcutaneous xenograft model
Assay: In-depth efficacy in olaparib-resistant pancreatic cancer Capan-1 CDX model (3.2)
Format: in vivo, mouse
Settings: for CR Rate: complete response, animals/group
Method: Protocol: Nude BALB/c mice were subcutaneously inoculated with human pancreatic cancer Capan-1 cells, establishing a human pancreatic cancer subcutaneous xenograft model. The mice were divided into 7 groups, 6 in each group: 100 mg/kg of the test drug olaparib as a monotherapy (Group 2); 50 mg/kg of TH-302 as a monotherapy (Group 3, QD); 100 mg/kg of TH-302 as a monotherapy (Group 4); 50 mg/kg of TH-302 as a monotherapy (Group 5, QW); 25 mg/kg of TH-302 as a monotherapy (Group 6); 25 mg/kg TH-302 in combination therapy with 100 mg/kg olaparib (Group 7); and 10% anhydrous ethanol+10% polyoxyethylene (35) castor oil+80% glucose injection solution D5W (pH 7.4) as a vehicle control (Group 1). The vehicle control group and the TH-302 test groups were all administered through tail vein injection. The 50 mg/kg TH-302 monotherapy group (Group 3, QD) was administered once daily for 3 consecutive days. After rest for 4 days and two weeks, the mice were again administered daily for another 3 consecutive days. TH-302 in all the 100 mg/kg (Group 4, QW), 50 mg/kg (Group 5, QW) and 25 mg/kg (Group 6, QW) TH-302 monotherapy groups and 25 mg/kg TH-302+100 mg/kg olaparib combination therapy group (Group 7) was administered once weekly for a total of three weeks. The test drug olaparib in all the groups was orally and intragastrically administered once daily for totally 30 days. Routes of administration, doses and regimens for the human pancreatic cancer Capan-1 animal model are specifically summarized in Table 12.
Tumor growth of the treatment and control groups on different days in the experiment were recorded and shown in Table 13, and corresponding tumor volume growth curves of the mice in respective groups are shown in FIG. 7. Efficacy evaluation was conducted based on relative tumor proliferation rates and relative tumor growth inhibition rates, and the results of efficacy analysis are summarized in Table 14. Body weight changes of the treatment and control groups after administration were recorded to investigate safety of the groups in the human pancreatic cancer Capan-1 subcutaneous model. Body weight change rates of the mice on Day 43 are shown in Table 15, and curves showing body weights of the treatment groups over time are plotted in FIG. 8.
A relative tumor proliferation rate, denoted as T/C %, is calculated as a relative tumor volume or a tumor weight of a treatment group as a percentage of that of the control group at a certain point of time according to:
T/C %=TRTV/CRTV×100% (where TRTV denotes average RTV of the treatment group; CRTV represents average RTV of the vehicle control group; and RTV=Vt/V0, where V0 is a tumor volume of an animal at the time of randomization, and Vt is a tumor volume of the animal after treatment); or
T/C %=TTW/CTW×100% (where TTW is an average tumor weight of the treatment group at the end of the experiment, and CTW is an average tumor weight of the vehicle control group at the end of the experiment).
A relative tumor growth inhibition rate, denoted as TGI (%), is calculated according to: TGI %=(1−T/C)×100% (where T and C are relative tumor volumes (RTV) or tumor weights (TW) of a treatment group and the control group, respectively, at a particular point of time).

[1] = Group 2: 100 mg/kg p.o. QD×30, Day 43
[2] = Group 3: 50 mg/kg i.v. QD, Day 43
[3] = Group 4: 100 mg/kg i.v. QW×3, Day 43
[4] = Group 5: 50 mg/kg i.v. QW×3, Day 43
[5] = Group 6: 25 mg/kg i.v. QW×3, Day 43

## O=C(c1cc(Cc2n[nH]c(=O)c3ccccc23)ccc1F)N1CCN(C(=O)C2CC2)CC1 [olaparib]
Group 2: 100 mg/kg p.o. QD×30, Day 6
  Tumor volume: 146.72 mm^3
Group 2: 100 mg/kg p.o. QD×30, Day 9
  Tumor volume: 223.17 mm^3
Group 2: 100 mg/kg p.o. QD×30, Day 13
  Tumor volume: 263.96 mm^3
Group 2: 100 mg/kg p.o. QD×30, Day 16
  Tumor volume: 314.03 mm^3
Group 2: 100 mg/kg p.o. QD×30, Day 20
  Tumor volume: 373.87 mm^3
Group 2: 100 mg/kg p.o. QD×30, Day 23
  Tumor volume: 419.26 mm^3
Group 2: 100 mg/kg p.o. QD×30, Day 27
  Tumor volume: 518.48 mm^3
Group 2: 100 mg/kg p.o. QD×30, Day 30
  Tumor volume: 550.33 mm^3
Group 2: 100 mg/kg p.o. QD×30, Day 34
  Tumor volume: 604.32 mm^3
Group 2: 100 mg/kg p.o. QD×30, Day 37
  Tumor volume: 725.18 mm^3
Group 2: 100 mg/kg p.o. QD×30, Day 41
  Tumor volume: 767.49 mm^3
[1]
  Relative Tumor Volume (x ± S): 5.72 ± 0.54
  T/C (%): 62.57%
  TGI (%): 37.43%
  CR Rate: 0/6
Group 2: 100 mg/kg p.o. QD×30, Day 43, 100 mg/kg
  Tumor volume: 846.86 mm^3 and 846.86 ± 128.85 mm^3

## Cn1c(COP(=O)(NCCBr)NCCBr)cnc1[N+](=O)[O-] [TH-302, evofosfamide]
Group 3: 50 mg/kg i.v. QD, Day 9
  Tumor volume: 194.10 mm^3
Group 3: 50 mg/kg i.v. QD, Day 13
  Tumor volume: 138.02 mm^3
Group 3: 50 mg/kg i.v. QD, Day 16
  Tumor volume: 124.61 mm^3
Group 3: 50 mg/kg i.v. QD, Day 20
  Tumor volume: 105.24 mm^3
Group 3: 50 mg/kg i.v. QD, Day 23
  Tumor volume: 107.93 mm^3
Group 3: 50 mg/kg i.v. QD, Day 27
  Tumor volume: 110.53 mm^3
Group 3: 50 mg/kg i.v. QD, Day 30
  Tumor volume: 123.45 mm^3
Group 3: 50 mg/kg i.v. QD, Day 34
  Tumor volume: 101.47 mm^3
Group 3: 50 mg/kg i.v. QD, Day 37
  Tumor volume: 114.69 mm^3
Group 3: 50 mg/kg i.v. QD, Day 41
  Tumor volume: 134.32 mm^3
[2]
  Relative Tumor Volume (x ± S): 0.99 ± 0.22
  T/C (%): 10.83%
  TGI (%): 89.17%
  CR Rate: 0/6
Group 3: 50 mg/kg i.v. QD, Day 43, 50 mg/kg
  Tumor volume: 146.99 mm^3 and 146.99 ± 37.96 mm^3
Group 3: 50 mg/kg i.v. QD×3, 4 days off, 2 weeks off, QD×3, Day 6
  Tumor volume: 146.76 mm^3
Group 4: 100 mg/kg i.v. QW×3, Day 6
  Tumor volume: 146.05 mm^3
Group 4: 100 mg/kg i.v. QW×3, Day 9
  Tumor volume: 193.80 mm^3
Group 4: 100 mg/kg i.v. QW×3, Day 13
  Tumor volume: 123.87 mm^3
Group 4: 100 mg/kg i.v. QW×3, Day 16
  Tumor volume: 112.22 mm^3
Group 4: 100 mg/kg i.v. QW×3, Day 20
  Tumor volume: 85.08 mm^3
Group 4: 100 mg/kg i.v. QW×3, Day 23
  Tumor volume: 59.95 mm^3
Group 4: 100 mg/kg i.v. QW×3, Day 27
  Tumor volume: 49.03 mm^3
Group 4: 100 mg/kg i.v. QW×3, Day 30
  Tumor volume: 48.35 mm^3
Group 4: 100 mg/kg i.v. QW×3, Day 34
  Tumor volume: 65.87 mm^3
Group 4: 100 mg/kg i.v. QW×3, Day 37
  Tumor volume: 75.54 mm^3
Group 4: 100 mg/kg i.v. QW×3, Day 41
  Tumor volume: 106.10 mm^3
[3]
  Relative Tumor Volume (x ± S): 0.83 ± 0.17
  T/C (%): 9.11%
  TGI (%): 90.89%
  CR Rate: 0/6
Group 4: 100 mg/kg i.v. QW×3, Day 43, 100 mg/kg
  Tumor volume: 124.68 mm^3 and 124.68 ± 31.35 mm^3
Group 5: 50 mg/kg i.v. QW×3, Day 6
  Tumor volume: 147.11 mm^3
Group 5: 50 mg/kg i.v. QW×3, Day 9
  Tumor volume: 182.60 mm^3
Group 5: 50 mg/kg i.v. QW×3, Day 13
  Tumor volume: 178.72 mm^3
Group 5: 50 mg/kg i.v. QW×3, Day 16
  Tumor volume: 181.66 mm^3
Group 5: 50 mg/kg i.v. QW×3, Day 20
  Tumor volume: 181.56 mm^3
Group 5: 50 mg/kg i.v. QW×3, Day 23
  Tumor volume: 156.49 mm^3
Group 5: 50 mg/kg i.v. QW×3, Day 27
  Tumor volume: 152.57 mm^3
Group 5: 50 mg/kg i.v. QW×3, Day 30
  Tumor volume: 152.13 mm^3
Group 5: 50 mg/kg i.v. QW×3, Day 34
  Tumor volume: 176.07 mm^3
Group 5: 50 mg/kg i.v. QW×3, Day 37
  Tumor volume: 198.42 mm^3
Group 5: 50 mg/kg i.v. QW×3, Day 41
  Tumor volume: 221.92 mm^3
[4]
  Complete tumor inhibition rate: 33.3%
  Relative Tumor Volume (x ± S): 1.81 ± 0.64
  T/C (%): 19.82%
  TGI (%): 80.18%
  CR Rate: 2/6
Group 5: 50 mg/kg i.v. QW×3, Day 43, 50 mg/kg
  Tumor volume: 263.45 mm^3 and 263.45 ± 86.54 mm^3
Group 6: 25 mg/kg i.v. QW×3, Day 6
  Tumor volume: 146.81 mm^3
Group 6: 25 mg/kg i.v. QW×3, Day 9
  Tumor volume: 213.60 mm^3
Group 6: 25 mg/kg i.v. QW×3, Day 13
  Tumor volume: 233.94 mm^3
Group 6: 25 mg/kg i.v. QW×3, Day 16
  Tumor volume: 277.57 mm^3
Group 6: 25 mg/kg i.v. QW×3, Day 20
  Tumor volume: 295.46 mm^3
Group 6: 25 mg/kg i.v. QW×3, Day 23
  Tumor volume: 328.33 mm^3
Group 6: 25 mg/kg i.v. QW×3, Day 27
  Tumor volume: 373.13 mm^3
Group 6: 25 mg/kg i.v. QW×3, Day 30
  Tumor volume: 454.44 mm^3
Group 6: 25 mg/kg i.v. QW×3, Day 34
  Tumor volume: 705.45 mm^3
Group 6: 25 mg/kg i.v. QW×3, Day 37
  Tumor volume: 886.42 mm^3
Group 6: 25 mg/kg i.v. QW×3, Day 41
  Tumor volume: 1344.26 mm^3
[5]
  Relative Tumor Volume (x ± S): 11.12 ± 3.31
  T/C (%): 121.59%
  TGI (%): −21.59%
  CR Rate: 0/6
Group 6: 25 mg/kg i.v. QW×3, Day 43, 25 mg/kg
  Tumor volume: 1521.33 mm^3 and 1521.33 ± 349.46 mm^3
